Measurements taken from US20210386736A1, “COMBINATION THERAPY FOR TREATING CANCER” (AstraZeneca AB, priority 2018, published 2021).

Assays:
KG1a AML cells = assay: KG1a subcutaneous AML xenograft, tumor volume over time; type: in vivo, SCID mice; conditions: FIG. 1; AZD2811 nanoparticles 100 mg/kg iv once weekly, venetoclax 100 mg/kg orally daily, 3 weekly cycles
Procedure: (§1) KGa1: 2×10^7 KG1a AML cells in 50% matrigel were implanted subcutaneously on the left flank of adult female SCID mice. Mice were randomised by tumor volume at D7 into groups of 8, with an average tumor volume of 0.2 cm^3 and all dosing was started. AZD2811 nanoparticles were dosed at once weekly with a 20-30 s intravenous infusion at either 100 mg/kg (100 mg/kg was the maximum tolerated dose in combination with venetoclax (ABT-199) 100 mg/kg; venetoclax was administered orally daily at 100 mg/kg). All drugs were given for 3 weekly cycles.
as §1, with “HL-60: 1×10^7 HL-60 AML” for “KGa1: 2×10^7 KG1a AML”, “either 50 mg/kg, 25 mg/kg, 12.5 mg/kg and 6.25” for “either 100”, “cycles. For both models, tumors were measured twice weekly by single operators, and all dosing was performed by randomised cage to minimise systematic bias. […] All drugs were given for 2 weekly cycles, the study endpoint was determined by a welfare scoring table.” for “cycles.”

HL-60 AML cells = assay: HL-60 subcutaneous AML xenograft, tumor volume over time; type: in vivo, SCID mice; conditions: FIG. 2; AZD2811 nanoparticles 50, 25, 12.5 or 6.25 mg/kg iv once weekly, venetoclax 100 mg/kg orally daily, 3 weekly cycles; combination benefit notably at the lowest doses of AZD2811
Procedure: HL-60: 1×10^7 HL-60 AML cells in 50% matrigel were implanted subcutaneously on the left flank of adult female SCID mice. Mice were randomised by tumor volume at D7 into groups of 8, with an average tumor volume of 0.2 cm^3 and all dosing was started. AZD2811 nanoparticles were dosed at once weekly with a 20-30 s intravenous infusion at either 50 mg/kg, 25 mg/kg, 12.5 mg/kg and 6.25 mg/kg (100 mg/kg was the maximum tolerated dose in combination with venetoclax (ABT-199) 100 mg/kg; venetoclax was administered orally daily at 100 mg/kg). All drugs were given for 3 weekly cycles. For both models, tumors were measured twice weekly by single operators, and all dosing was performed by randomised cage to minimise systematic bias. For the MOLM-13 orthotopic model, 1×10^6 MOLM-13 cells were injected into the tail vien of adult female NOG mice. After 3 days, mice were randomised by body-weight into groups of 8 and treatment was commenced the following day. AZD2811 nanoparticles were dosed at once weekly with a 20-30 s intravenous infusion at 25 mg/kg (25 mg/kg was the maximum tolerated dose in combination with venetoclax (ABT-199) 100 mg/kg; venetoclax was administered orally daily at 100 mg/kg). […] All drugs were given for 2 weekly cycles, the study endpoint was determined by a welfare scoring table.

**Q.** For `CC1(C)CCC(CN2CCN(c3ccc(C(=O)NS(=O)(=O)c4ccc(NCC5CCOCC5)c([N+](=O)[O-])c4)c(Oc4cnc5[nH]ccc5c4)c3)CC2)=C(c2ccc(Cl)cc2)C1` [venetoclax, Venetoclax], which “efficacy (KG1a tumor volume over time)” value (KG1a AML cells) is on record?
**A.** modestly efficacious

**Q.** And the “efficacy (HL-60 tumor volume over time)” value (HL-60 AML cells)?
**A.** active
